# Assays:
# [1] = molecular target: PsrA (His6-PsrA) (Pseudomonas aeruginosa, UniProt Q9HZJ9); experiment: EMSA, inhibition of PsrA binding to promoter DNA; conditions: 100 ng PpsrA, PrpoS or PexsC DNA; 0.01% Brij-58; inhibition seen from 5 µM
# [2] = molecular target: the molecule itself; experiment: crystal structure
Molecule,complete inhibition of DNA binding [1] [µM],binding result [2]
CCCCCCCC/C=C\CCCCCCCC(=O)O [oleate],50,–
"PsrA (PA3006) of Pseudomonas aeruginosa (natural protein, selenomethionine in place of methionine) MAQSETVERILDAAEQLFAEKGFAETSLRLITSKAGVNLAAVNYHFGSKKALIQAVFSRFLGPFCASLEKELDRRQAKPEAQHATLEDLLHLLVSQAMAVKPRSGNDLSIFMRLLGLAFSQSQGHLRKYLEEVYGKVFRRYMLLVNEAAPKLPPIELFWRVHFMLGAAAFSMSGIKALRAMAETDFGVNTSTEQVMHLMVPFFAAGMRAESGIDDPLLAGAQLRPRNKTPAKA",–,binds
